US20240261258A1, “Presurgical Perineural Administration of Resiniferatoxin For Reduction of Post-Operative Pain” (Sorrento Therapeutics, Inc., priority 2021, published 2024)

How the values were obtained:
[1] = system: healthy dogs undergoing TPLO surgery; test: Clinical observations during RTX instillation under general anesthesia and recovery; type: in vivo, dog
Description: This example provides safety data related to the tolerability of RTX administered as a nerve block pre-surgically and as a local application on the surgical site intraoperatively in healthy dogs undergoing tibial plateau levelling osteotomy (TPLO). Pharmacological behavior of RTX after a perineural injection and local application in the hindlimb and the long-term effects on bone healing was also observed.
Fourteen adult female beagle dogs, weighing 11.9±0.6 kg and between 3-5 years of age, were enrolled in this study. Each animal was randomly assigned to one of four groups. Four dogs (group 1) received a femoral and sciatic nerve block with 12.5 μg RTX per nerve (25 μg RTX total) diluted with sterile saline for a total volume of 2 mL (half volume per block). Another four dogs (group 2) received a femoral and a sciatic nerve block with 3.12 μg RTX per nerve block (6.25 μg RTX total) diluted with sterile saline for a total volume of 2 mL (half volume per block). Group 3 (4 animals) received a femoral and sciatic nerve block with 5 mg bupivacaine total (standard of care) plus a total of 50 μg RTX (total volume of 4 mL, concentration 12.5 μg/mL) applied locally to the cut on the tibia for 10 min. Group 4 (2 animals) was the control group and received a femoral and a sciatic nerve block with 5 mg bupivacaine total (standard of care).
Dogs were sedated and anesthetized using standard protocols and following the American College of Veterinary Analgesia and Anesthesia guidelines. A physical exam was performed prior to surgery and a complete blood count and chemistry profile were submitted. Food was withheld for 8-10 hours before surgery and offered again 4-6 hours after recovery from anesthesia.
Diphenhydramine (2.2 mg/kg) was given IM after induction. The peripheral IV catheter was used for administration of fluid (Lactate Ringer's solution (LRS) at 5 mL/kg/h), and intraoperative drugs when necessary (hydromorphone and/or ketamine and/or dexmedetomidine for analgesia, atropine in case of bradycardia, dopamine or dobutamine in case of hypotension). Cefazolin 22 mg/kg was administered intravenously prior to surgery and every 60-90 minutes during surgery.
Femoral and sciatic nerve blocks with RTX or bupivacaine were performed after induction of general anesthesia, and followed by surgery (TPLO). RTX was administered at least 15 minutes prior to any cut made to the bone. Dogs in group 3 received RTX during surgery via direct application on the bone.
At the end of surgery, animals were allowed to recover. Following extubation, animals were supervised until able to stand and walk steadily, then monitored for the first 4 hours following the procedure. Food and water were given at 4-6 hours if recovery was smooth and uneventful. All subjects received oral carprofen 2.2 mg/kg twice a day for 10 days and trazodone 5-7 mg/kg twice a day, until the end of the study.
Perineural injections (femoral and sciatic nerve block) of RTX were performed before surgery under general anesthesia and application of RTX over the bone incision was done during the surgical procedure. The nerve blocks were applied at after administration of anesthesia and least 15 minutes before surgery.
For the perineural injections, the animal was placed in right lateral recumbency and the lateral and medial aspects of proximal area of the left hindlimb were clipped and prepared using an aseptic technique. A caudal approach was used for the sciatic nerve block. The ultrasound transducer was placed over the lateral aspect of the biceps femoris, just distal to the greater trochanter and oriented craniocaudally. After obtaining a short axis view of the sciatic nerve, a sheathed needle for electrolocation was inserted caudally in-plane with the ultrasound transducer until the tip of the needle reached the nerve. The correct location of the needle was confirmed by a positive response (twitches of the leg) after activation of the nerve locator using a current of 0.3-0.5 mA. […]

[2] = system: SP nerve axons of sciatic and femoral nerves; test: Quantification of SP immunopositive nerve fibers; type: in vivo, dog; settings: for Density of SP nerve axons in the ipsilateral femoral nerve: not statistically significant
Procedure: FIGS. 2A-J show density of SP nerve axons in representative confocal images of ipsilateral (left; A-D) and contralateral (right; E-H) sciatic nerve from dogs post-TPLO and after different treatment and doses of RTX. Each bar represents the mean±SEM. Data were analyzed by one-way ANOVA followed by Tukey post hoc test; *p<0.05. FIGS. 2I-J are bar graphs of the density of SP nerve axons (density of nerve fibers in mm/mm3) in ipsilateral (I), and contralateral (J) sciatic nerves as measured in n subjects in each group.
FIGS. 4A-J show the density of SP-immunoreactive axons in representative confocal images showing the presence of […] axons from ipsilateral (A-D) and contralateral (E-H) canine femoral nerves from dogs post-TPLO and after treatment of RTX. Each bar represents the mean±SEM. FIGS. 4I-J are bar graphs of the density of SP nerve axons (density of nerve fibers in mm/mm3) in ipsilateral (I), and contralateral (J) femoral nerves as measured in n subjects in each group.
FIG. 4 illustrates the effect of RTX on SP density in nerve fibers innervating the ipsilateral (FIG. 4A-D) and contralateral (FIG. 4E-H) femoral nerves from dogs post-TPLO.

Which results are given for `C=C(C)[C@]12C[C@@H](C)[C@@]34O[C@](Cc5ccccc5)(O[C@@H]1[C@@H]3C=C(COC(=O)Cc1ccc(O)c(OC)c1)C[C@]1(O)C(=O)C(C)=C[C@@H]41)O2` [RTX, resiniferatoxin]?
Dogs that required dobutamine to treat hypotension ([1]; Group 1 (4 dogs), after RTX administration): None; Dogs given dexmedetomidine IV to treat dysphoria immediately after extubation ([1]; Group 2): one; Dogs given naloxone IV due to prolonged recovery ([1]; Group 2): One; Dogs that required dobutamine to treat hypotension ([1]; Group 2 (4 dogs), after RTX administration): one; Dogs given dexmedetomidine IV to treat dysphoria immediately after extubation ([1]; Group 3): one; Dogs that required dobutamine to treat hypotension ([1]; Group 3 (4 dogs)): two; Mean blood pressure after increase ([1]; Subject 2968 (group 1), from 60 mmHg, 100 minutes after RTX, leg stretched during aseptic preparation): 172 mmHg; Heart rate after increase ([1]; Subject 2968 (group 1), from 90 bpm, 100 minutes after RTX, leg stretched during aseptic preparation): 168 bpm; Tolerability ([1]; all RTX treatments: nerve block 6.25 μg and 25 μg total, local gauze loaded with 50 μg): well tolerated; Change in heart rate and blood pressure ([1]; approximately 15 to 25 minutes after RTX administration, group 1 and 2 subjects): mild to moderate increase; Respiratory observation after extubation ([1]; dogs in group 1 and 2): polypnea; Body temperature to which dogs decreased before polypnea ended ([1]; dogs in group 1 and 2, after extubation): 94-95 ° F; Duration of decrease in body temperature after the treatment ([1]; some dogs of groups 1 and 2, clinically acted normally): up to 3 days; Persistence of hypothermia ([1]; three subjects of group 1 (0271, 2968, 5635), without any clinical signs): over 24 hours; Density of SP nerve axons in the contralateral sciatic nerve vs control treatment ([2]; RTX treated groups, p=0.9122, p=0.9995, p=0.9971): did not affect; Density of SP nerve axons in the contralateral femoral nerve ([2]; RTX treatment, p=0.9907, p=0.8812, p=0.9066): did not have an effect; Density of SP axons of the ipsilateral sciatic nerve vs control treatment ([2]; local administration (50 μg), p=0.0155): statistically significant reduction; Density of SP axons of the ipsilateral sciatic nerve vs control treatment ([2]; peri-neural 3.12 μg per nerve (6.25 μg total), p=0.0335): statistically significant reduction; Density of SP nerve axons in the ipsilateral femoral nerve ([2]; peri-neural 3.12 μg per nerve, p=0.8519): marked trend in reducing density; Density of SP axons of the ipsilateral sciatic nerve vs control treatment ([2]; peri-neural 12.5 μg per nerve (25 μg total), p=0.0112): statistically significant reduction; Density of SP nerve axons in the ipsilateral femoral nerve ([2]; peri-neural 12.5 μg per nerve, p=0.1216): marked trend in reducing density
